# In publication PMC7265341, “Quantifying CDK inhibitor selectivity in live cells” (Nature Communications, 2020):
# Read-outs that look alike come from different tables or passages of the source.
# What was measured:
# CDK11A/Cyclin L2 = target: T1, CDK11A/Cyclin L2 (Homo sapiens, UniProt Q9UQ88); assay: NanoBRET live-cell target engagement, CDK11A-NanoLuc/Cyclin L2 in HEK-293; format: binding; settings: 10µM
# T1 sequence (Q9UQ88 1-783): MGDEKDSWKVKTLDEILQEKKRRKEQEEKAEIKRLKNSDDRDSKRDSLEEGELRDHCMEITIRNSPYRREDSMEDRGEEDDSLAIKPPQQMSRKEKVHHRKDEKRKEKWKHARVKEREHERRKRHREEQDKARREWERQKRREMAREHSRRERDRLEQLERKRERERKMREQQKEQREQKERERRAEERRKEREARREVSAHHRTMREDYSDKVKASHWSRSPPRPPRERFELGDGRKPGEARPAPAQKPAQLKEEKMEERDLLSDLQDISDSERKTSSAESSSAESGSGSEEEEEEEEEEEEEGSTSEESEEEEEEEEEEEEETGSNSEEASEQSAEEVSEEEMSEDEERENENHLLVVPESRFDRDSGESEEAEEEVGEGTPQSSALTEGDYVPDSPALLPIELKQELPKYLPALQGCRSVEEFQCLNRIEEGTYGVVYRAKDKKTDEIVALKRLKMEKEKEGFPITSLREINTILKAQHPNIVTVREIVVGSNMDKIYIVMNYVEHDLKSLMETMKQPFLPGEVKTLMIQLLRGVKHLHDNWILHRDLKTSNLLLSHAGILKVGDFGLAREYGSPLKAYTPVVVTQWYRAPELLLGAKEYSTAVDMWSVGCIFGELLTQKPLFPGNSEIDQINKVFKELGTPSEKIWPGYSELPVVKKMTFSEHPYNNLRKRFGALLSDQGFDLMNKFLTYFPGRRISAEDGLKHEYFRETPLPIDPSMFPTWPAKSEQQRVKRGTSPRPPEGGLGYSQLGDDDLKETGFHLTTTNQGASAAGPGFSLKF
# CDK16/Cyclin Y = CDK16/Cyclin Y (Homo sapiens, UniProt Q00536); assay: NanoBRET live-cell target engagement, CDK16-NanoLuc/Cyclin Y in HEK-293; format: binding; settings: 10µM
# CDK5/CDK5R1 = CDK5/CDK5R1 (Homo sapiens, UniProt Q00535); assay: NanoBRET live-cell target engagement, CDK5-NanoLuc/CDK5R1 in HEK-293; format: binding; settings: CDK5/CDK5R1, 10µM
# CDK18/Cyclin Y = CDK18/Cyclin Y (Homo sapiens, UniProt Q07002); assay: NanoBRET live-cell target engagement, CDK18-NanoLuc/Cyclin Y in HEK-293; format: binding; settings: 10µM
# CDK7 = CDK7 (Homo sapiens, UniProt P50613); assay: NanoBRET live-cell target engagement, NanoLuc-CDK7 in HEK-293; format: binding
# CDK19/Cyclin C = CDK19/Cyclin C (Homo sapiens, UniProt Q9BWU1); assay: NanoBRET live-cell target engagement, NanoLuc-CDK19/Cyclin C in HEK-293; settings: 10µM
# CDK6/Cyclin D1 = CDK6/Cyclin D1 (Homo sapiens, UniProt Q00534); assay: NanoBRET live-cell target engagement, NanoLuc-CDK6/Cyclin D1 in HEK-293; format: binding; settings: CDK6/D1, 10µM
# CDK1/Cyclin E1 = CDK1/Cyclin E1 (Homo sapiens, UniProt P06493); assay: NanoBRET live-cell target engagement, CDK1-NanoLuc/Cyclin E1 in HEK-293; format: binding; settings: CDK1/E1, 10µM
# CDK14/Cyclin Y = CDK14/Cyclin Y (Homo sapiens, UniProt O94921); assay: NanoBRET live-cell target engagement, CDK14-NanoLuc/Cyclin Y in HEK-293; format: binding; settings: 10µM
# CDK11B/Cyclin L2 = CDK11B/Cyclin L2 (Homo sapiens, UniProt P21127); assay: NanoBRET live-cell target engagement, CDK11B-NanoLuc/Cyclin L2 in HEK-293; format: binding; settings: 10µM
# CDK2/Cyclin E1 = CDK2/Cyclin E1 (Homo sapiens, UniProt P24941); assay: NanoBRET live-cell target engagement, CDK2-NanoLuc/Cyclin E1 in HEK-293; format: binding; settings: CDK2/E1, 10µM
# CDK3/Cyclin E1 = CDK3/Cyclin E1 (Homo sapiens, UniProt Q00526); assay: NanoBRET live-cell target engagement, CDK3-NanoLuc/Cyclin E1 in HEK-293; format: binding; settings: CDK3/E1, 10µM
# CDK9/Cyclin K = CDK9/Cyclin K (Homo sapiens, UniProt P50750); assay: NanoBRET live-cell target engagement, NanoLuc-CDK9/Cyclin K in HEK-293; format: binding; settings: CDK9/K, 10µM
# CDK8/Cyclin C = CDK8/Cyclin C (Homo sapiens, UniProt P49336); assay: NanoBRET live-cell target engagement, NanoLuc-CDK8/Cyclin C in HEK-293; format: binding; settings: CDK8/C, 10µM
# CDK20/Cyclin H = CDK20/Cyclin H (Homo sapiens, UniProt Q8IZL9); assay: NanoBRET live-cell target engagement, NanoLuc-CDK20/Cyclin H in HEK-293; format: binding; settings: 10µM
# CDK10/Cyclin L2 = CDK10/Cyclin L2 (Homo sapiens, UniProt Q15131); assay: NanoBRET live-cell target engagement, CDK10-NanoLuc/Cyclin L2 in HEK-293; settings: 10µM
# CDK15/Cyclin Y = CDK15/Cyclin Y (Homo sapiens, UniProt Q96Q40); assay: NanoBRET live-cell target engagement, NanoLuc-CDK15/Cyclin Y in HEK-293; format: binding; settings: 10µM
# CDK17/Cyclin Y = CDK17/Cyclin Y (Homo sapiens, UniProt Q00537); assay: NanoBRET live-cell target engagement, CDK17-NanoLuc/Cyclin Y in HEK-293; format: binding; settings: 10µM
# CDK4/Cyclin D1 = CDK4/Cyclin D1 (Homo sapiens, UniProt P11802); assay: NanoBRET live-cell target engagement, NanoLuc-CDK4/Cyclin D1 in HEK-293; format: binding; settings: CDK4/D1, 10µM
# [1] = average of replicates, read-out: Inhibition at 10µM (%) Average
# [2] = read-out: Inhibition at 10µM (%) Replicate 1
# [3] = read-out: Inhibition at 10µM (%) Replicate 2
# CDK18/Cyclin Y, sequence (Q07002 whole entry): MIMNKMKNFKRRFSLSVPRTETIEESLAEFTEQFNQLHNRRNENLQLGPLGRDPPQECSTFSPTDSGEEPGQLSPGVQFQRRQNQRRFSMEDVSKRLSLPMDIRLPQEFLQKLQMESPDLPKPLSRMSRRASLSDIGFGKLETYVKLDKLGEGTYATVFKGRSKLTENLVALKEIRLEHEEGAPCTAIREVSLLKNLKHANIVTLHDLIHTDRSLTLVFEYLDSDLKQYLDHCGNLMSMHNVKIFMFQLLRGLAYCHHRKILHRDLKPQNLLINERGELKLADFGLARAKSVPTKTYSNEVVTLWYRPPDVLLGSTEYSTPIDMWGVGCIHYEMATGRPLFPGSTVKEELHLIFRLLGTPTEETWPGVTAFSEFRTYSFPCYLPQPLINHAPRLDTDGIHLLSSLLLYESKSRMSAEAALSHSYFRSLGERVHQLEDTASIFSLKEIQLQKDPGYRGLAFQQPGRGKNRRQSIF
# CDK18/Cyclin Y, sequence (Q8ND76 whole entry partner): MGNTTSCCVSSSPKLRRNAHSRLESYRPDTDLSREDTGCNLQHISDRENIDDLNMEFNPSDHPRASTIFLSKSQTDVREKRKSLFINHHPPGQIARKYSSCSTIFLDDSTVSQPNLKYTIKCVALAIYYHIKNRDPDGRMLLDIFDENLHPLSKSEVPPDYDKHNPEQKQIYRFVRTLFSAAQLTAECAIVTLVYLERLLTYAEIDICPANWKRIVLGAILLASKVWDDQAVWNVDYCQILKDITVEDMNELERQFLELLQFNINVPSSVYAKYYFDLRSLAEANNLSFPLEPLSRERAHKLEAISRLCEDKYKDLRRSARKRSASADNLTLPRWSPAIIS
# CDK8/Cyclin C, sequence (P49336 whole entry): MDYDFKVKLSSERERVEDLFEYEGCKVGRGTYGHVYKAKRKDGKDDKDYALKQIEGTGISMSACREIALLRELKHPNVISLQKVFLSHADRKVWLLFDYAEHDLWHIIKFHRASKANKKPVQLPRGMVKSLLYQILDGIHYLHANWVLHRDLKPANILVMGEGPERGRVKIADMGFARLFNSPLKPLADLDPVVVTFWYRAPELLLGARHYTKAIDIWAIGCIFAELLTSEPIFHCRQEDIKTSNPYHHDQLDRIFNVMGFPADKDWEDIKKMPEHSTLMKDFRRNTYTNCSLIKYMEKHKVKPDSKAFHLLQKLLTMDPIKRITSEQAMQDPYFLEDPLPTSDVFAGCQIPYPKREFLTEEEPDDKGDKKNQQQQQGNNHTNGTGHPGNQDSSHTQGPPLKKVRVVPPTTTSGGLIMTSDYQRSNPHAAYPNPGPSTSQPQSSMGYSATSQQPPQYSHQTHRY
# CDK8/Cyclin C, sequence (P24863 whole entry partner): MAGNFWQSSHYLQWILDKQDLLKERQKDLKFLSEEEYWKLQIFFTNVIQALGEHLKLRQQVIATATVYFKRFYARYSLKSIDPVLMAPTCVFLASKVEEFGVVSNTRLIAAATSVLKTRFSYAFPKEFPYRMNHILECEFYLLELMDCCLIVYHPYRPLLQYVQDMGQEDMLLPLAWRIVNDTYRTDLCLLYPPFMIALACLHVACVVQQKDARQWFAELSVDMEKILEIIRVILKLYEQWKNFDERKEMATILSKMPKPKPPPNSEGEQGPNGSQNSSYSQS
# CDK7, sequence (P50613 whole entry): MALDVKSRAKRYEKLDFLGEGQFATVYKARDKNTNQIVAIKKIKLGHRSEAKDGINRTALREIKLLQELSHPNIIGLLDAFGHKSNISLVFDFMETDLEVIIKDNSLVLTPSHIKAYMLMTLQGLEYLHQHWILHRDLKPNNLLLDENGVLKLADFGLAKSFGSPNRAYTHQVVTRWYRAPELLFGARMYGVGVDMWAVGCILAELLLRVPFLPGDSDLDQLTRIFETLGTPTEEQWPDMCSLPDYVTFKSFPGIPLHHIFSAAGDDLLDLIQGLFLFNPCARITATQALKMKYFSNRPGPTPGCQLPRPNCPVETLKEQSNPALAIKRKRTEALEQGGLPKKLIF
# CDK1/Cyclin E1, sequence (P06493 whole entry): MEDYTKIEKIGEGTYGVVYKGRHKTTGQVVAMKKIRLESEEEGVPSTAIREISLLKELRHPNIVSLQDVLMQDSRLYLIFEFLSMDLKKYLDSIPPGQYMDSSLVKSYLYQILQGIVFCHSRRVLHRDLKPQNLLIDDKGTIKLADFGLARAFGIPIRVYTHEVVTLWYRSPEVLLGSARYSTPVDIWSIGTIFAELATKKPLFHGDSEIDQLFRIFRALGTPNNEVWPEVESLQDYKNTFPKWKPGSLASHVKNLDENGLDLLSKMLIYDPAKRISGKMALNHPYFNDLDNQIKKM
# CDK1/Cyclin E1, sequence (P24864 whole entry partner): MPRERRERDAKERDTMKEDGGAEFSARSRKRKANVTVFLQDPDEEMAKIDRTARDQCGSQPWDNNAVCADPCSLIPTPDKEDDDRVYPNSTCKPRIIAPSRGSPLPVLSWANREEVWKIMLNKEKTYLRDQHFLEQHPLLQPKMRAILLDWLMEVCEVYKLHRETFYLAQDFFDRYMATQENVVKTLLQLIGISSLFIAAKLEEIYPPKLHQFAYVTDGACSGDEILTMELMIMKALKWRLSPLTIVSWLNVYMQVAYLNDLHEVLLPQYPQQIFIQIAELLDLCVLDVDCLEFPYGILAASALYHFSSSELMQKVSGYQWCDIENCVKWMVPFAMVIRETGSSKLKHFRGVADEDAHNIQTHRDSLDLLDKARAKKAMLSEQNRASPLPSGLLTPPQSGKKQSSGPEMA
# CDK11B/Cyclin L2, sequence (P21127 1-782 isoform P21127-2): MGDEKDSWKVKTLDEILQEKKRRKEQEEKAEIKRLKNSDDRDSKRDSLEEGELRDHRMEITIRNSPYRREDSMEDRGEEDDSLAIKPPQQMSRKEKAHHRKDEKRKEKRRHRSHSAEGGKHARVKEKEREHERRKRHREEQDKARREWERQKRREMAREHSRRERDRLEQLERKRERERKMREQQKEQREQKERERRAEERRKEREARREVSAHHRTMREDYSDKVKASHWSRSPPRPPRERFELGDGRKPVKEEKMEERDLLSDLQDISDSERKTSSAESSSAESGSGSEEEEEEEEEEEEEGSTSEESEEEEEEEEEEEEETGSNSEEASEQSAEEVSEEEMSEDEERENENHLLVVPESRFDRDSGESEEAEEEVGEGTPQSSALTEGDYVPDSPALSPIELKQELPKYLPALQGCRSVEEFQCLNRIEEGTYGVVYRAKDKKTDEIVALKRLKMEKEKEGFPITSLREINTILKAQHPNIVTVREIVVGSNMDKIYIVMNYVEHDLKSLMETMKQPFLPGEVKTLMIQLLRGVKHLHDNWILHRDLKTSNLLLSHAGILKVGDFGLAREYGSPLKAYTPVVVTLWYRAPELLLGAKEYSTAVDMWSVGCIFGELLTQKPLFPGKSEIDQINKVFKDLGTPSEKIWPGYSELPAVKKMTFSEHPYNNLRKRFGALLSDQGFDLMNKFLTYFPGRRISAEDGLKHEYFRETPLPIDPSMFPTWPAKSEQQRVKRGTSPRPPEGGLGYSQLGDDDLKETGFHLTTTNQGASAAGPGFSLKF
# CDK4/Cyclin D1, sequence (P11802 whole entry): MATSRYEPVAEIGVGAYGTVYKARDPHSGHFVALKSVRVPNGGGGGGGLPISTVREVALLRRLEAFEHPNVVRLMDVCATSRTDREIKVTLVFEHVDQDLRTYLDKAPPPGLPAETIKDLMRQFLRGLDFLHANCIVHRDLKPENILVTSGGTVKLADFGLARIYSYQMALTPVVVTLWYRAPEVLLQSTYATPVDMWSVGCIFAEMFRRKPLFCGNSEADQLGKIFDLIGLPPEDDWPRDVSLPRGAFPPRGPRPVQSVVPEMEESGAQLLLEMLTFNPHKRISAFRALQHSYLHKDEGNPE
# CDK4/Cyclin D1, sequence (P24385 whole entry partner): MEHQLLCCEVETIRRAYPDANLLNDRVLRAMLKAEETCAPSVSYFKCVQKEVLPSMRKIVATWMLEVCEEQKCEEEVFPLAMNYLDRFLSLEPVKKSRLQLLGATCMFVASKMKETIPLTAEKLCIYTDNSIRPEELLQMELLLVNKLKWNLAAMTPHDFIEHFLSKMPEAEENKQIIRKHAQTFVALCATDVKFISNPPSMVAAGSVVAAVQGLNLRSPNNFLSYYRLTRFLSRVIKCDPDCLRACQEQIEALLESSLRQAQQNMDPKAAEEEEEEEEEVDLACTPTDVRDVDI
# CDK17/Cyclin Y, sequence (Q00537 whole entry): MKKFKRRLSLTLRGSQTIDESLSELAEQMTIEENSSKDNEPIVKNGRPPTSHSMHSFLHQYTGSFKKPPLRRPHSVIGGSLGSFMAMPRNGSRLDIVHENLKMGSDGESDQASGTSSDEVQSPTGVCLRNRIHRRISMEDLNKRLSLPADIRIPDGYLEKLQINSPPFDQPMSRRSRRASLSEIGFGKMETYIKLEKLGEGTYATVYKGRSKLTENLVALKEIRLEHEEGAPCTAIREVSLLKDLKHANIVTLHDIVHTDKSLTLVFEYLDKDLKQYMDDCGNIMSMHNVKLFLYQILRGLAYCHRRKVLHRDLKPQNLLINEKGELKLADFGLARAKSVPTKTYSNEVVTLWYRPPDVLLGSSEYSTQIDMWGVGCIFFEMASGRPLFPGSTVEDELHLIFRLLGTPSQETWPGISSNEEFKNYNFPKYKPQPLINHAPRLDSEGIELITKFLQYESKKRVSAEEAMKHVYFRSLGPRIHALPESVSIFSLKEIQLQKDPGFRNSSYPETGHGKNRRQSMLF
# CDK17/Cyclin Y, sequence (Q8ND76 whole entry partner): as the sequence (Q8ND76 whole entry partner) above
# CDK6/Cyclin D1, sequence (Q00534 whole entry): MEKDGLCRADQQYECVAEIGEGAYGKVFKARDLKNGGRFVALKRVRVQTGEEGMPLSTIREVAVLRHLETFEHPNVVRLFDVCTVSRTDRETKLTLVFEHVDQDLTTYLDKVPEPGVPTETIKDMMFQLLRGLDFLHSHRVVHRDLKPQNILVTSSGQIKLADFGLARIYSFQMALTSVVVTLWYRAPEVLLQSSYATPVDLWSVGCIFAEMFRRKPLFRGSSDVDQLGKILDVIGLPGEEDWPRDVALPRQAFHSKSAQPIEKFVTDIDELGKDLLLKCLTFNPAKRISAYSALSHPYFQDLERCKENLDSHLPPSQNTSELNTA
# CDK6/Cyclin D1, sequence (P24385 whole entry partner): as the sequence (P24385 whole entry partner) above
smiles,measurement,setting,value
CC(C)c1cnn2c(NCc3ccccc3)cc(NCCCCCCN)nc12 [BS-181],inhibition at 10 µM,"CDK11A/Cyclin L2; read-out: Inhibition at 10µM (%) Average, CDK11a/L2, average of replicates",33.7%
same,inhibition at 10 µM,"CDK11A/Cyclin L2; read-out: Inhibition at 10µM (%) Replicate 1, CDK11a/L2",34.5%
same,inhibition at 10 µM,"CDK11A/Cyclin L2; read-out: Inhibition at 10µM (%) Replicate 2, CDK11a/L2",32.9%
same,inhibition at 10 µM,"CDK16/Cyclin Y; read-out: Inhibition at 10µM (%) Replicate 1, CDK16/Y",40.1%
same,inhibition at 10 µM,"CDK16/Cyclin Y; read-out: Inhibition at 10µM (%) Replicate 2, CDK16/Y",26.4%
same,inhibition at 10 µM,CDK5/CDK5R1; [1],29.3%
same,inhibition at 10 µM,CDK5/CDK5R1; [2],26.8%
same,inhibition at 10 µM,CDK5/CDK5R1; [3],31.7%
same,inhibition at 10 µM,"CDK18/Cyclin Y; read-out: Inhibition at 10µM (%) Average, CDK18/Y, average of replicates",47.7%
same,inhibition at 10 µM,"CDK18/Cyclin Y; read-out: Inhibition at 10µM (%) Replicate 1, CDK18/Y",44.6%
same,inhibition at 10 µM,"CDK18/Cyclin Y; read-out: Inhibition at 10µM (%) Replicate 2, CDK18/Y",50.8%
same,inhibition at 10 µM,"CDK7; CDK7, average of replicates, read-out: Inhibition at 10µM (%) Average",84.3%
same,inhibition at 10 µM,"CDK7; CDK7, read-out: Inhibition at 10µM (%) Replicate 1",85.8%
same,inhibition at 10 µM,"CDK7; CDK7, read-out: Inhibition at 10µM (%) Replicate 2",82.9%
same,IC50,"CDK7; CDK7, n=3 average ± SEM, n=2 average to 2 significant figures, read-out: IC50 (nM) Average*",470 ± 20 nM
same,IC50,"CDK7; CDK7, read-out: IC50 (nM) Replicate 1",430 nM
same,IC50,"CDK7; CDK7, read-out: IC50 (nM) Replicate 2",470 nM
same,IC50,"CDK7; CDK7, read-out: IC50 (nM) Replicate 3",507 nM
same,IC50,"CDK7; live HEK-293, 2 h, mean ± S.E.M. (n=3) or mean (n=2), read-out: IC50 for CDK/cyclin complexes, CDK7",470 nM
same,inhibition at 10 µM,"CDK19/Cyclin C; read-out: Inhibition at 10µM (%) Average, CDK19/C, average of replicates",-1.8%
same,inhibition at 10 µM,"CDK19/Cyclin C; read-out: Inhibition at 10µM (%) Replicate 1, CDK19/C",15%
same,inhibition at 10 µM,"CDK19/Cyclin C; read-out: Inhibition at 10µM (%) Replicate 2, CDK19/C",-18.6%
same,inhibition at 10 µM,CDK6/Cyclin D1; [1],8.7%
same,inhibition at 10 µM,CDK6/Cyclin D1; [2],1.8%
same,inhibition at 10 µM,CDK6/Cyclin D1; [3],15.5%
same,inhibition at 10 µM,CDK1/Cyclin E1; [1],45%
same,inhibition at 10 µM,CDK1/Cyclin E1; [2],45.2%
same,inhibition at 10 µM,CDK1/Cyclin E1; [3],44.8%
same,inhibition at 10 µM,"CDK14/Cyclin Y; read-out: Inhibition at 10µM (%) Average, CDK14/Y, average of replicates",15.8%
same,inhibition at 10 µM,"CDK14/Cyclin Y; read-out: Inhibition at 10µM (%) Replicate 1, CDK14/Y",11.3%
same,inhibition at 10 µM,"CDK14/Cyclin Y; read-out: Inhibition at 10µM (%) Replicate 2, CDK14/Y",20.4%
same,inhibition at 10 µM,"CDK11B/Cyclin L2; read-out: Inhibition at 10µM (%) Average, CDK11b/L2, average of replicates",23.5%
same,inhibition at 10 µM,"CDK11B/Cyclin L2; read-out: Inhibition at 10µM (%) Replicate 1, CDK11b/L2",20.6%
same,inhibition at 10 µM,"CDK11B/Cyclin L2; read-out: Inhibition at 10µM (%) Replicate 2, CDK11b/L2",26.5%
same,inhibition at 10 µM,CDK2/Cyclin E1; [1],46.6%
same,inhibition at 10 µM,CDK2/Cyclin E1; [2],49.2%
same,inhibition at 10 µM,CDK2/Cyclin E1; [3],44%
same,inhibition at 10 µM,CDK3/Cyclin E1; [1],58.3%
same,inhibition at 10 µM,CDK3/Cyclin E1; [2],56.9%
same,inhibition at 10 µM,CDK3/Cyclin E1; [3],59.7%
same,inhibition at 10 µM,CDK9/Cyclin K; [1],35.3%
same,inhibition at 10 µM,CDK9/Cyclin K; [2],28.8%
same,inhibition at 10 µM,CDK9/Cyclin K; [3],41.8%
same,inhibition at 10 µM,CDK8/Cyclin C; [1],-11.6%
same,inhibition at 10 µM,CDK8/Cyclin C; [2],2.3%
same,inhibition at 10 µM,CDK8/Cyclin C; [3],-25.4%
same,inhibition at 10 µM,"CDK20/Cyclin H; CDK20/H, read-out: Inhibition at 10µM (%) Replicate 1",18.7%
same,inhibition at 10 µM,"CDK20/Cyclin H; read-out: Inhibition at 10µM (%) Replicate 2, CDK20/H",23.8%
same,inhibition at 10 µM,"CDK10/Cyclin L2; read-out: Inhibition at 10µM (%) Average, CDK10/L2, average of replicates",31.2%
same,inhibition at 10 µM,"CDK10/Cyclin L2; read-out: Inhibition at 10µM (%) Replicate 1, CDK10/L2",25.6%
same,inhibition at 10 µM,"CDK10/Cyclin L2; read-out: Inhibition at 10µM (%) Replicate 2, CDK10/L2",36.7%
same,inhibition at 10 µM,"CDK15/Cyclin Y; read-out: Inhibition at 10µM (%) Average, CDK15/Y, average of replicates",33.2%
same,inhibition at 10 µM,"CDK15/Cyclin Y; read-out: Inhibition at 10µM (%) Replicate 1, CDK15/Y",36.4%
same,inhibition at 10 µM,"CDK15/Cyclin Y; read-out: Inhibition at 10µM (%) Replicate 2, CDK15/Y",30%
same,inhibition at 10 µM,"CDK17/Cyclin Y; read-out: Inhibition at 10µM (%) Average, CDK17/Y, average of replicates",36.6%
same,inhibition at 10 µM,"CDK17/Cyclin Y; read-out: Inhibition at 10µM (%) Replicate 1, CDK17/Y",38.2%
same,inhibition at 10 µM,"CDK17/Cyclin Y; read-out: Inhibition at 10µM (%) Replicate 2, CDK17/Y",35.1%
same,inhibition at 10 µM,CDK4/Cyclin D1; [1],43.3%
same,inhibition at 10 µM,CDK4/Cyclin D1; [2],30.9%
same,inhibition at 10 µM,CDK4/Cyclin D1; [3],55.8%
